What was measured:
Podosphaera fuliginea [1] = experiment: Resistant ratio, ratio of EC50 for Podosphaera fuliginea isolate S-2 to EC50 for Podosphaera fuliginea isolate K-7; type: functional
Podosphaera fuliginea [2] = experiment: Antifungal activity against Podosphaera fuliginea isolate N-1 in cucumber plants by leaf disc method; type: functional, organism-based
Podosphaera fuliginea [3] = experiment: Antifungal activity against Podosphaera fuliginea isolate K-7 in cucumber plants by leaf disc method; type: functional, organism-based
Podosphaera fuliginea [4] = experiment: Antifungal activity against Podosphaera fuliginea isolate K-7 in cucumber plants assessed as percentage of infected leaf area at 125 ppm treated 3 times at 7-day interval by foliar spray test; type: functional
Podosphaera fuliginea [5] = experiment: Resistant ratio, ratio of EC50 for Podosphaera fuliginea isolate N-2 to EC50 for Podosphaera fuliginea isolate K-7; type: functional
Podosphaera fuliginea [6] = experiment: Antifungal activity against Podosphaera fuliginea isolate N-2 in cucumber plants assessed as percentage of infected leaf area at 125 ppm treated 3 times at 7-day interval by foliar spray test; type: functional
Podosphaera fuliginea [7] = experiment: Antifungal activity against Podosphaera fuliginea isolate N-2 in cucumber plants by leaf disc method; type: functional, organism-based
Podosphaera fuliginea [8] = experiment: Resistant ratio, ratio of EC50 for Podosphaera fuliginea isolate N-1 to EC50 for Podosphaera fuliginea isolate K-7; type: functional
Podosphaera fuliginea [9] = experiment: Antifungal activity against Podosphaera fuliginea isolate S-2 in cucumber plants by leaf disc method; type: functional, organism-based
Podosphaera fuliginea [10] = experiment: Antifungal activity against Podosphaera fuliginea isolate S-2 in cucumber plants assessed as percentage of infected leaf area at 125 ppm treated 3 times at 7-day interval by foliar spray test; type: functional
Podosphaera fuliginea [11] = experiment: Antifungal activity against Podosphaera fuliginea isolate N-1 in cucumber plants assessed as percentage of infected leaf area at 125 ppm treated 3 times at 7-day interval by foliar spray test; type: functional
Podosphaera fuliginea [12] = experiment: Antifungal activity against Podosphaera fuliginea isolate N-1 in cucumber plants assessed as percentage of infected leaf area at 62.5 ppm treated 3 times at 7-day interval by foliar spray test; type: functional
Podosphaera fuliginea [13] = experiment: Antifungal activity against Podosphaera fuliginea isolate K-7 in cucumber plants assessed as percentage of infected leaf area at 62.5 ppm treated 3 times at 7-day interval by foliar spray test; type: functional
Podosphaera fuliginea [14] = experiment: Antifungal activity against Podosphaera fuliginea isolate S-2 in cucumber plants assessed as percentage of infected leaf area at 62.5 ppm treated 3 times at 7-day interval by foliar spray test; type: functional
Podosphaera fuliginea [15] = experiment: Antifungal activity against Podosphaera fuliginea isolate N-2 in cucumber plants assessed as percentage of infected leaf area at 62.5 ppm treated 3 times at 7-day interval by foliar spray test; type: functional
Podosphaera fuliginea [16] = experiment: Antifungal activity against Podosphaera fuliginea isolate N-2 in cucumber plants assessed as percentage of infected leaf area at 466.7 ppm treated 3 times at 7-day interval by foliar spray test; type: functional
Podosphaera fuliginea [17] = experiment: Antifungal activity against Podosphaera fuliginea isolate K-7 in cucumber plants assessed as percentage of infected leaf area at 466.7 ppm treated 3 times at 7-day interval by foliar spray test; type: functional
Podosphaera fuliginea [18] = experiment: Antifungal activity against Podosphaera fuliginea isolate N-1 in cucumber plants assessed as percentage of infected leaf area at 466.7 ppm treated 3 times at 7-day interval by foliar spray test; type: functional
Podosphaera fuliginea [19] = experiment: Antifungal activity against Podosphaera fuliginea isolate S-2 in cucumber plants assessed as percentage of infected leaf area at 466.7 ppm treated 3 times at 7-day interval by foliar spray test; type: functional
Podosphaera fuliginea [20] = experiment: Antifungal activity against Podosphaera fuliginea isolate K-7 in cucumber plants assessed as percentage of infected leaf area at 25 ppm treated 3 times at 7-day interval by foliar spray test; type: functional
Podosphaera fuliginea [21] = experiment: Antifungal activity against Podosphaera fuliginea isolate S-2 in cucumber plants assessed as percentage of infected leaf area at 25 ppm treated 3 times at 7-day interval by foliar spray test; type: functional
Podosphaera fuliginea [22] = experiment: Antifungal activity against Podosphaera fuliginea isolate N-1 in cucumber plants assessed as percentage of infected leaf area at 25 ppm treated 3 times at 7-day interval by foliar spray test; type: functional
Podosphaera fuliginea [23] = experiment: Antifungal activity against Podosphaera fuliginea isolate N-2 in cucumber plants assessed as percentage of infected leaf area at 25 ppm treated 3 times at 7-day interval by foliar spray test; type: functional

SMILES	Ratio EC50 (Podosphaera fuliginea [1])	EC50 (Podosphaera fuliginea [2])	EC50 (Podosphaera fuliginea [3])	Ratio EC50 (Podosphaera fuliginea [5])	EC50 (Podosphaera fuliginea [7]) [ppm]	Ratio EC50 (Podosphaera fuliginea [8])	EC50 (Podosphaera fuliginea [9])	further results
Cc1ccc2nc3sc(=O)sc3nc2c1 [CHINOMETHIONAT]	3.9	4.83 ppm	1.27 ppm	2.6	3.35	3.8	4.95 ppm	Activity (Podosphaera fuliginea [4]): 96.5%; Activity (Podosphaera fuliginea [6]): 94.9%; Activity (Podosphaera fuliginea [10]): 91.3%; Activity (Podosphaera fuliginea [11]): 91.1%
CCCCc1c(C)nc(N(C)C)nc1O [DIMETHIRIMOL]	157.3	6.6 ppm	2.95 ×10⁻² ppm	218.6	6.45	223.7	4.64 ppm	Activity (Podosphaera fuliginea [12]): 49.4%; Activity (Podosphaera fuliginea [13]): 98.8%; Activity (Podosphaera fuliginea [14]): 55.2%; Activity (Podosphaera fuliginea [15]): 47.4%
COC(=O)NC(=S)Nc1ccccc1NC(=S)NC(=O)OC [THIOPHANATE METHYL]	17675.3	680 ppm	2.71 ×10⁻² ppm	26531.4	719	25092.3	479 ppm	Activity (Podosphaera fuliginea [16]): 11.9%; Activity (Podosphaera fuliginea [17]): 97.8%; Activity (Podosphaera fuliginea [18]): 5.1%; Activity (Podosphaera fuliginea [19]): 0%
CC(C)(C)C(=O)C(Oc1ccc(Cl)cc1)n1cncn1 (centres undefined) [TRIADIMEFON]	1.8	9.72 ×10⁻¹ ppm	1.03 ×10⁻² ppm	553.4	5.7	94.4	1.82 ×10⁻² ppm	Activity (Podosphaera fuliginea [20]): 98.8%; Activity (Podosphaera fuliginea [21]): 100%; Activity (Podosphaera fuliginea [22]): 76%; Activity (Podosphaera fuliginea [23]): 45.8%
